Experimental data reported in PubChem BioAssay AID248 (DTP/NCI, 2004).
“And” between values parts separate entries of the source, which are not always exact repeats. Equal values may be shown once. Inconclusive results and toxic doses are left out.

Tested on: L1210 leukemia ip in BDF1 mice, survival T/C
Experiment: NCI In Vivo Anticancer Drug Screen. Data for tumor model L1210 Leukemia (intraperitoneal) in B6D2F1 (BDF1) mice
Conditions: higher = longer survival
Procedure, shortened: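 Transplanted-tumor mice were given test agent; controls received vehicle only. Survival readings from the two groups were divided (treated over control).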

[1] = endpoint: mean survival time, dose: 100.0 mg/kg/injection, schedule: Q04DX003 (ip), vehicle: saline with Tween-80
[2] = endpoint: mean survival time, dose: 200.0 mg/kg/injection, schedule: Q04DX003 (ip), vehicle: saline with Tween-80
[3] = endpoint: mean survival time, dose: 400.0 mg/kg/injection, schedule: Q04DX003 (ip), vehicle: saline with Tween-80
[4] = endpoint: mean survival time, dose: 100.0 mg/kg/injection, schedule: Q04DX003 (ip), vehicle: saline
[5] = endpoint: mean survival time, dose: 200.0 mg/kg/injection, schedule: Q04DX003 (ip), vehicle: saline
[6] = endpoint: mean survival time, dose: 400.0 mg/kg/injection, schedule: Q04DX003 (ip), vehicle: saline

In the case of `O=C(/C=C/c1ccccc1)NC(=S)Nc1ccccc1F`, the T/C (endpoint: mean survival time, dose: 12.5 mg/kg/injection, schedule: Q01DX009 (ip), vehicle: saline with Tween-80) is reported as 106 % of control and 88 % of control, the T/C (endpoint: mean survival time, dose: 25.0 mg/kg/injection, schedule: Q01DX009 (ip), vehicle: saline with Tween-80) is reported as 95 % of control and 107 % of control and the T/C (endpoint: mean survival time, dose: 50.0 mg/kg/injection, schedule: Q01DX009 (ip), vehicle: saline with Tween-80) is reported as 97 % of control. The T/C (endpoint: mean survival time, dose: 100.0 mg/kg/injection, schedule: Q01DX001 (ip), vehicle: saline with Tween-80) was 92 % of control, the T/C (endpoint: mean survival time, dose: 100.0 mg/kg/injection, schedule: Q04DX002 (ip), vehicle: alcohol) was 95 % of control and 90 % of control and the T/C [1] was 94 % of control. The T/C (endpoint: mean survival time, dose: 200.0 mg/kg/injection, schedule: Q01DX001 (ip), vehicle: saline with Tween-80) was 90 % of control, the T/C (endpoint: mean survival time, dose: 200.0 mg/kg/injection, schedule: Q01DX009 (ip), vehicle: saline with Tween-80) was 89 % of control and the T/C (endpoint: mean survival time, dose: 200.0 mg/kg/injection, schedule: Q04DX002 (ip), vehicle: alcohol) was 101 % of control. The T/C [2] was 87 % of control, the T/C (endpoint: mean survival time, dose: 400.0 mg/kg/injection, schedule: Q01DX001 (ip), vehicle: saline with Tween-80) was 87 % of control and the T/C (endpoint: mean survival time, dose: 400.0 mg/kg/injection, schedule: Q01DX009 (ip), vehicle: saline with Tween-80) was 86 % of control. The T/C (endpoint: mean survival time, dose: 400.0 mg/kg/injection, schedule: Q04DX002 (ip), vehicle: alcohol) was 102 % of control and the T/C [3] was 86 % of control.
For `O=C(Nc1ccc(Cl)cc1C(=O)c1ccccc1)c1ccc(Cl)cc1`, the T/C (endpoint: mean survival time, dose: 100.0 mg/kg/injection, schedule: Q04DX002 (ip), vehicle: Klucel (hydroxypropylcellulose) (HPC)) was 92 % of control, the T/C (endpoint: mean survival time, dose: 200.0 mg/kg/injection, schedule: Q04DX002 (ip), vehicle: Klucel (hydroxypropylcellulose) (HPC)) was 89 % of control and the T/C (endpoint: mean survival time, dose: 400.0 mg/kg/injection, schedule: Q04DX002 (ip), vehicle: Klucel (hydroxypropylcellulose) (HPC)) was 95 % of control.
In the case of `COCC(=O)C(C(C)=O)C(c1ccc(N(C)C)cc1)C(C(C)=O)C(=O)COC` (stereo unspecified), the T/C [1] is reported as 98 % of control, the T/C [2] is reported as 89 % of control and the T/C [3] is reported as 91 % of control.
For `CCOC(=O)C1C(O)=C(C(=O)Nc2ccccc2)C(=O)C(C(=O)O)C1C1CC=CCC1` (stereo unspecified), the T/C (endpoint: mean survival time, dose: 100.0 mg/kg/injection, schedule: Q01DX001 (ip), vehicle: other) was 97 % of control, the T/C [1] was 94 % of control and the T/C (endpoint: mean survival time, dose: 200.0 mg/kg/injection, schedule: Q01DX001 (ip), vehicle: other) was 100 % of control. The T/C [2] was 103 % of control and the T/C [3] was 100 % of control.
`Cc1cc(C)nc(N(C)CC(=O)O)n1` was tested, and the T/C (endpoint: mean survival time, dose: 50.0 mg/kg/injection, schedule: Q04DX002 (ip), vehicle: saline) was 100 % of control, the T/C (endpoint: mean survival time, dose: 100.0 mg/kg/injection, schedule: Q04DX002 (ip), vehicle: saline) was 95 % of control and the T/C (endpoint: mean survival time, dose: 200.0 mg/kg/injection, schedule: Q04DX002 (ip), vehicle: saline) was 103 % of control.
`O=C(O)C1CC=CCC1c1c2ccc(=O)cc-2oc2cc(O)ccc12` (stereo unspecified) was tested, and the T/C [4] was 98 % of control, the T/C [5] was 94 % of control and the T/C [6] was 91 % of control.
For `CCOC(=O)c1c(C)c(C(=O)CC)c(C)n1C(=O)c1ccccc1`, the T/C (endpoint: mean survival time, dose: 100.0 mg/kg/injection, schedule: Q01DX001 (ip), vehicle: saline) was 100 % of control, the T/C (endpoint: mean survival time, dose: 200.0 mg/kg/injection, schedule: Q01DX001 (ip), vehicle: saline) was 102 % of control and the T/C (endpoint: mean survival time, dose: 400.0 mg/kg/injection, schedule: Q01DX001 (ip), vehicle: saline) was 96 % of control.
With `O=C1OC(c2cccc(Cl)c2)=N/C1=C\c1cccc2ccccc12` the T/C (endpoint: mean survival time, dose: 100.0 mg/kg/injection, schedule: Q01DX009 (ip), vehicle: Klucel (hydroxypropylcellulose) (HPC)) was 90 % of control, the T/C (endpoint: mean survival time, dose: 200.0 mg/kg/injection, schedule: Q01DX009 (ip), vehicle: Klucel (hydroxypropylcellulose) (HPC)) was 90 % of control and the T/C (endpoint: mean survival time, dose: 400.0 mg/kg/injection, schedule: Q01DX009 (ip), vehicle: Klucel (hydroxypropylcellulose) (HPC)) was 96 % of control.
In the case of `N#C/C(=C/Cc1ccc(Cl)cc1)Nc1ccccc1C(N)=O`, the T/C (endpoint: mean survival time, dose: 12.5 mg/kg/injection, schedule: Q01DX001 (ip), vehicle: Klucel (hydroxypropylcellulose) (HPC)) is reported as 101 % of control, the T/C (endpoint: mean survival time, dose: 25.0 mg/kg/injection, schedule: Q01DX001 (ip), vehicle: Klucel (hydroxypropylcellulose) (HPC)) is reported as 101 % of control and the T/C (endpoint: mean survival time, dose: 50.0 mg/kg/injection, schedule: Q01DX001 (ip), vehicle: Klucel (hydroxypropylcellulose) (HPC)) is reported as 102 % of control. The T/C (endpoint: mean survival time, dose: 75.0 mg/kg/injection, schedule: Q04DX003 (ip), vehicle: Klucel (hydroxypropylcellulose) (HPC)) was 104 % of control, the T/C (endpoint: mean survival time, dose: 115.0 mg/kg/injection, schedule: Q04DX003 (ip), vehicle: Klucel (hydroxypropylcellulose) (HPC)) was 104 % of control and the T/C (endpoint: mean survival time, dose: 170.0 mg/kg/injection, schedule: Q04DX003 (ip), vehicle: Klucel (hydroxypropylcellulose) (HPC)) was 98 % of control.
With `COC(=O)Nc1cccc(-c2nc3ccc(NC(=O)OC)cc3c(=O)n2-c2ccccc2)c1` the T/C (endpoint: mean survival time, dose: 6.25 mg/kg/injection, schedule: Q01DX009 (ip), vehicle: Klucel (hydroxypropylcellulose) (HPC)) was 94 % of control and 98 % of control, the T/C (endpoint: mean survival time, dose: 12.5 mg/kg/injection, schedule: Q01DX009 (ip), vehicle: Klucel (hydroxypropylcellulose) (HPC)) was 97 % of control and 101 % of control and the T/C (endpoint: mean survival time, dose: 25.0 mg/kg/injection, schedule: Q01DX009 (ip), vehicle: Klucel (hydroxypropylcellulose) (HPC)) was 102 % of control and 88 % of control. The T/C (endpoint: mean survival time, dose: 25.0 mg/kg/injection, schedule: Q01DX009 (ip), vehicle: other) was 113 % of control, the T/C (endpoint: mean survival time, dose: 25.0 mg/kg/injection, schedule: Q01DX009 (oral), vehicle: Klucel (hydroxypropylcellulose) (HPC)) was 93 % of control and 97 % of control and the T/C (endpoint: mean survival time, dose: 25.0 mg/kg/injection, schedule: Q04DX003 (ip), vehicle: saline) was 97 % of control. The T/C (endpoint: mean survival time, dose: 50.0 mg/kg/injection, schedule: Q01DX009 (ip), vehicle: Klucel (hydroxypropylcellulose) (HPC)) was 120 % of control, the T/C (endpoint: mean survival time, dose: 50.0 mg/kg/injection, schedule: Q01DX009 (ip), vehicle: other) was 114 % of control and the T/C (endpoint: mean survival time, dose: 50.0 mg/kg/injection, schedule: Q01DX009 (oral), vehicle: Klucel (hydroxypropylcellulose) (HPC)) was 102 % of control. The T/C (endpoint: mean survival time, dose: 50.0 mg/kg/injection, schedule: Q04DX003 (ip), vehicle: saline) was 101 % of control, the T/C (endpoint: mean survival time, dose: 100.0 mg/kg/injection, schedule: Q01DX009 (oral), vehicle: Klucel (hydroxypropylcellulose) (HPC)) was 97 % of control and 101 % of control and the T/C [4] was 103 % of control and 107 % of control. The T/C (endpoint: mean survival time, dose: 200.0 mg/kg/injection, schedule: Q01DX009 (oral), vehicle: Klucel (hydroxypropylcellulose) (HPC)) was 104 % of control and 121 % of control, the T/C (endpoint: mean survival time, dose: 200.0 mg/kg/injection, schedule: Q01DX009 (oral), vehicle: other) was 105 % of control and the T/C [5] was 110 % of control. The T/C (endpoint: mean survival time, dose: 300.0 mg/kg/injection, schedule: Q01DX009 (oral), vehicle: other) was 102 % of control, the T/C (endpoint: mean survival time, dose: 400.0 mg/kg/injection, schedule: Q01DX009 (oral), vehicle: Klucel (hydroxypropylcellulose) (HPC)) was 116 % of control and 121 % of control and the T/C (endpoint: mean survival time, dose: 400.0 mg/kg/injection, schedule: Q01DX009 (oral), vehicle: other) was 116 % of control. The T/C [6] was 110 % of control, the T/C (endpoint: mean survival time, dose: 500.0 mg/kg/injection, schedule: Q01DX009 (oral), vehicle: other) was 102 % of control and the T/C (endpoint: mean survival time, dose: 800.0 mg/kg/injection, schedule: Q01DX009 (oral), vehicle: Klucel (hydroxypropylcellulose) (HPC)) was 119 % of control and 120 % of control. The T/C (endpoint: median survival time, dose: 25.0 mg/kg/injection, schedule: Q01DX009 (oral), vehicle: saline) was 103 % of control, the T/C (endpoint: median survival time, dose: 50.0 mg/kg/injection, schedule: Q01DX009 (oral), vehicle: saline) was 102 % of control and the T/C (endpoint: median survival time, dose: 100.0 mg/kg/injection, schedule: Q01DX009 (oral), vehicle: saline) was 104 % of control. The T/C (endpoint: median survival time, dose: 100.0 mg/kg/injection, schedule: Q04DX003 (ip), vehicle: other) was 158 % of control, the T/C (endpoint: median survival time, dose: 100.0 mg/kg/injection, schedule: Q04DX003 (ip), vehicle: saline) was 185 % of control and the T/C (endpoint: median survival time, dose: 200.0 mg/kg/injection, schedule: Q01DX009 (oral), vehicle: saline) was 104 % of control. The T/C (endpoint: median survival time, dose: 200.0 mg/kg/injection, schedule: Q04DX003 (ip), vehicle: Klucel (hydroxypropylcellulose) (HPC)) was 158 % of control, the T/C (endpoint: median survival time, dose: 200.0 mg/kg/injection, schedule: Q04DX003 (ip), vehicle: other) was 119 % of control and the T/C (endpoint: median survival time, dose: 200.0 mg/kg/injection, schedule: Q04DX003 (ip), vehicle: saline with Tween-80) was 154 % of control. For the same molecule, the T/C (endpoint: median survival time, dose: 200.0 mg/kg/injection, schedule: Q04DX003 (oral), vehicle: saline) was 113 % of control, the T/C (endpoint: median survival time, dose: 300.0 mg/kg/injection, schedule: Q04DX003 (oral), vehicle: saline) was 123 % of control and the T/C (endpoint: median survival time, dose: 400.0 mg/kg/injection, schedule: Q04DX003 (ip), vehicle: Klucel (hydroxypropylcellulose) (HPC)) was 178 % of control. The T/C (endpoint: median survival time, dose: 400.0 mg/kg/injection, schedule: Q04DX003 (ip), vehicle: saline with Tween-80) was 190 % of control and the T/C (endpoint: median survival time, dose: 400.0 mg/kg/injection, schedule: Q04DX003 (oral), vehicle: saline) was 112 % of control.
In the case of `CCCS(=O)(=O)N1CCCCCC1`, the T/C (endpoint: mean survival time, dose: 100.0 mg/kg/injection, schedule: Q04DX002 (ip), vehicle: saline with Tween-80) is reported as 92 % of control, the T/C (endpoint: mean survival time, dose: 200.0 mg/kg/injection, schedule: Q04DX002 (ip), vehicle: saline with Tween-80) is reported as 92 % of control and the T/C (endpoint: mean survival time, dose: 400.0 mg/kg/injection, schedule: Q04DX002 (ip), vehicle: saline with Tween-80) is reported as 92 % of control.
